Reference: ChEMBL document CHEMBL5126537, “Influenza-existing drugs and treatment prospects” (Eur J Med Chem, 2022)

Columns and labels:
[1] = Elimination half life in INH dosed mouse lungs; assay type: ADME, organism-based, Lung; conditions: in vivo, inhaled_or_intranasal
[2] = tested on: Influenza A virus; assay: Antiviral activity against Influenza A virus A/PR/8/34 (H1N1) infected in MDCK cells assessed as inhibition of viral entry preincubated for 1 hr followed by infection in MDCK cells measured after 1 hr by focus forming assay; assay type: functional, organism-based
[3] = Cytotoxicity against MDCK cells; assay type: toxicity, cell-based, Canis lupus familiaris; conditions: dog

## CCCCCCCC(=O)OC[C@@H](O)[C@@H](OC)[C@@H]1OC(C(=O)O)=C[C@H](NC(=N)N)[C@H]1NC(C)=O [LANINAMIVIR OCTANOATE]
[1]
  t1/2: 41 h

## COc1cc(OC)c2c(=O)c(O)c(-c3ccc(OC)c(OC)c3)oc2c1
[2]
  IC50: 36 µM

## NC(=O)c1nc(F)c[nH]c1=O [FAVIPIRAVIR]
[3]
  CC50: > 2000 µg/mL
